The structures appear in SMILES notation.

The target in assay [1] is T1, Ephrin type-B receptor 3 (Homo sapiens) (UniProt P54753).
T1 sequence (whole entry): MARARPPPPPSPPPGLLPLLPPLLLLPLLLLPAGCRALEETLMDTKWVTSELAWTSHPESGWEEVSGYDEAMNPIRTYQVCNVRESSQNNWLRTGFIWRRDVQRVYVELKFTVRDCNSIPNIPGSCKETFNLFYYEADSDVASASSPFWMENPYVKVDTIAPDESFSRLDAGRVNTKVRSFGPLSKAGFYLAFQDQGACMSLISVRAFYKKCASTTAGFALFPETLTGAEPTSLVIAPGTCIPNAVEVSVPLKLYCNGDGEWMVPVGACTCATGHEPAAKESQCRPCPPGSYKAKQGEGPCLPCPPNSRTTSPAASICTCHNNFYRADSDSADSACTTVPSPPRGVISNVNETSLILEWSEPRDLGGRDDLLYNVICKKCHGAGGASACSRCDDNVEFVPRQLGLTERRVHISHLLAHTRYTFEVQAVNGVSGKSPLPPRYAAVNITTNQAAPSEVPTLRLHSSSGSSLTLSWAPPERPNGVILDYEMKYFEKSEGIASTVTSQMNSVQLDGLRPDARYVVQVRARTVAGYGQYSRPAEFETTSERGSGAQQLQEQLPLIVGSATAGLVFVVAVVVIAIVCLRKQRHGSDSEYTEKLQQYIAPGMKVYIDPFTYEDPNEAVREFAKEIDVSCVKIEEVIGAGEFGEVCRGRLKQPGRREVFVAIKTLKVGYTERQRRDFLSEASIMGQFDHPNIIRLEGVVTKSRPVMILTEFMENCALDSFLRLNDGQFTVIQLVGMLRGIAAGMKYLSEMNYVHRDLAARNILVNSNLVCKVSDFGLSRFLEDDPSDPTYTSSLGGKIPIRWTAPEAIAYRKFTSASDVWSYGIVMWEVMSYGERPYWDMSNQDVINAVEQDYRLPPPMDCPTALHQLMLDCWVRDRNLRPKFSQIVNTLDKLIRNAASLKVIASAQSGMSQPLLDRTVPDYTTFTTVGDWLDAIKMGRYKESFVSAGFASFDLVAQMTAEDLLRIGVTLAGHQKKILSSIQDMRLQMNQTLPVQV
As to the kind of experiment: Inhibition of EphB3 at 1 uM; values are per cent of control.

The nature of assay [2]: Inhibition of MAPK2 at 1 uM. Particulars: values are per cent of control.
The target of assay [3] is T2, cGMP-dependent protein kinase 1 (Homo sapiens) (UniProt Q13976).
T2 sequence (whole entry): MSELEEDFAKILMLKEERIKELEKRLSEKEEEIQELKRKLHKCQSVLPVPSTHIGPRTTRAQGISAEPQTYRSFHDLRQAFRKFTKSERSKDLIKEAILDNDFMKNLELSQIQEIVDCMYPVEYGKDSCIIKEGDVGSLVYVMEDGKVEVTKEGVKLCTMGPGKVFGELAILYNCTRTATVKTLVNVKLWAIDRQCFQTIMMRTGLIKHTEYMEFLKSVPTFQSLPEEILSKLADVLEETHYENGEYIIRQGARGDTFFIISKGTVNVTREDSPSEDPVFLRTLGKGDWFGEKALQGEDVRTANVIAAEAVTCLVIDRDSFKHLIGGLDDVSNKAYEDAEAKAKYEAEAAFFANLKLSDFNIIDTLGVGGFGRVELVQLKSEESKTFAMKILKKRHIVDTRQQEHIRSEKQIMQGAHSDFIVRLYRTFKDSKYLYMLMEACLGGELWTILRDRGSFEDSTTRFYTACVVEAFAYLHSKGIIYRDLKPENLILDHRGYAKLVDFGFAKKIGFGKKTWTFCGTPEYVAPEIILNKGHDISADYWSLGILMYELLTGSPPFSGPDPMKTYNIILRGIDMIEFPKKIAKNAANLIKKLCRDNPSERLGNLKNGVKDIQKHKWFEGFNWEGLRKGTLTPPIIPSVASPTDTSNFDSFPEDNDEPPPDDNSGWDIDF
Nature of the assay: Inhibition of PKG1beta at 1 uM; values are per cent of control.

Assay [4] addresses T3, Calcium/calmodulin-dependent protein kinase type IV (Homo sapiens) (UniProt Q16566).
T3 sequence (whole entry): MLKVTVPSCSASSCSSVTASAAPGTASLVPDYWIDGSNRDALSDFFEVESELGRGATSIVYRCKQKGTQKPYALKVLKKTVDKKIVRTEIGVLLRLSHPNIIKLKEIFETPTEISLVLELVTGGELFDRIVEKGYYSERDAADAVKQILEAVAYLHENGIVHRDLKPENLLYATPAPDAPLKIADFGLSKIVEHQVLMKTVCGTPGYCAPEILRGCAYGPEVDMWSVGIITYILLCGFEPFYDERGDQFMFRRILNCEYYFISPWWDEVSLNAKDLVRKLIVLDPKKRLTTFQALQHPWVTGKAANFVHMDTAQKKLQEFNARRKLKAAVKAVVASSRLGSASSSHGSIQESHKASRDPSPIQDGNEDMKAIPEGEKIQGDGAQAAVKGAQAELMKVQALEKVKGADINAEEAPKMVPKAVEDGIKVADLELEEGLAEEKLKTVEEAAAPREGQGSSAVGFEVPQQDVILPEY
Nature of the assay: Inhibition of CaMK4 at 1 uM; values are per cent of control.

In the case of `Cc1ccc2cc(-c3n[nH]c4ccc(NC5CCNC5)cc34)[nH]c2c1` (stereo not drawn), the residual activity amounted to 105% in assay [1], 64% in assay [2], 43% in assay [3] and 28% in assay [4].
In the same order, the values of `Cc1ccc2cc(-c3n[nH]c4ccc(NC5CCN(Cc6ccccc6)CC5)cc34)[nH]c2c1` are 119%, 84%, 45% and 115%.

For the origin of these results see ChEMBL document CHEMBL1681705, “Optimisation of ITK inhibitors through successive iterative design cycles” (Bioorg Med Chem Lett, 2011).
